# Molecular target: T1, human PAH with the R408W mutation (Homo sapiens, UniProt P00439, R408W)
# T1 construct: expressed in transfected cells
# T1 sequence (P00439 1-452 R408W): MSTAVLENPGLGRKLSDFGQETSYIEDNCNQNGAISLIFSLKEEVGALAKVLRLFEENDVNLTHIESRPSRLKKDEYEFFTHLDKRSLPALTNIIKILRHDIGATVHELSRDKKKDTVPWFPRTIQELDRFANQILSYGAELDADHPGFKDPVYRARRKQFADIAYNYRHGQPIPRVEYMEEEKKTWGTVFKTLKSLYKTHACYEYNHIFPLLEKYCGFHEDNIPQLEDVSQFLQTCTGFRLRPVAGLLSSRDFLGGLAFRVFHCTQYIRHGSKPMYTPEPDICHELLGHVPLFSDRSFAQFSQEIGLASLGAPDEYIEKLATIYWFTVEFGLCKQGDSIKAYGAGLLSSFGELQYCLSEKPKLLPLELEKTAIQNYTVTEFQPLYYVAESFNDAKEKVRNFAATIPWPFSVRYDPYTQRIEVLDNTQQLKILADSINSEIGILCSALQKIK
# Test: Cell Based Phenylalanine Flux Assay;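 further: after compound treatment, cells received sepiapterin plus isotope-labelled Phenylalanine for 4 hours, then labelled Tyrosine in the medium was quantified, 10-point 2-fold dilution series run in duplicate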
# Details: A375 cells expressing human PAH R408W; 24 hrs compound incubation; 13C-Tyrosine by LC-MS; average where tested multiple times; read-out: AC50
row,Compound,AC50 [µM]
1,"CC(C)c1cccn2nc([C@H]3c4nc[nH]c4CCN3C(=O)c3nnc(-c4ccn(C)n4)o3)cc12 [Example 1950, (R)-(4-(4-isopropylpyrazolo[1,5-a]pyridin-2-yl)-1,4,6,7-tetrahydro-5H-imidazo[4,5-c]pyridin-5-yl)(5-(1-methyl-1H-pyrazol-3-yl)-1,3,4-oxadiazol-2-yl)methanone]",> 5
2,"CC(C)c1cccn2nc([C@@H]3c4nc[nH]c4CCN3C(=O)c3nnc(-c4ccn(C)n4)o3)cc12 [Example 1951, (S)-(4-(4-isopropylpyrazolo[1,5-a]pyridin-2-yl)-1,4,6,7-tetrahydro-5H-imidazo[4,5-c]pyridin-5-yl)(5-(1-methyl-1H-pyrazol-3-yl)-1,3,4-oxadiazol-2-yl)methanone]",< 0.5
3,"Fc1cccc(N2CCc3[nH]cnc3[C@@H]2c2cc3c(F)cccn3n2)n1 [Example 1954, (R)-4-(4-fluoropyrazolo[1,5-a]pyridin-2-yl)-5-(6-fluoropyridin-2-yl)-4,5,6,7-tetrahydro-1H-imidazo[4,5-c]pyridine]",1 to 5
4,"Fc1cccc(N2CCc3[nH]cnc3[C@H]2c2cc3c(F)cccn3n2)n1 [Example 1955, (S)-4-(4-fluoropyrazolo[1,5-a]pyridin-2-yl)-5-(6-fluoropyridin-2-yl)-4,5,6,7-tetrahydro-1H-imidazo[4,5-c]pyridine]",< 0.5
5,"CC(C)(F)c1ncc(C(=O)N2CCc3[nH]cnc3[C@H]2c2cc3ccccn3n2)o1 [Example 1957, (S)-(2-(2-fluoropropan-2-yl)oxazol-5-yl)(4-(pyrazolo[1,5-a]pyridin-2-yl)-1,4,6,7-tetrahydro-5H-imidazo[4,5-c]pyridin-5-yl)methanone]",0.5 to 1
6,"Cc1cccn2nc([C@@H]3c4nc[nH]c4CCN3C(=O)c3cnc(-c4cnn(C)c4)o3)cc12 [Example 1960, (S)-(2-(1-methyl-1H-pyrazol-4-yl)oxazol-5-yl)(4-(4-methylpyrazolo[1,5-a]pyridin-2-yl)-1,4,6,7-tetrahydro-5H-imidazo[4,5-c]pyridin-5-yl)methanone]",0.5 to 1
7,"Cc1cccn2nc([C@H]3c4nc[nH]c4CCN3C(=O)c3cnc(-c4cnn(C)c4)o3)cc12 [Example 1961, (R)-(2-(1-methyl-1H-pyrazol-4-yl)oxazol-5-yl)(4-(4-methylpyrazolo[1,5-a]pyridin-2-yl)-1,4,6,7-tetrahydro-5H-imidazo[4,5-c]pyridin-5-yl)methanone]",> 5
8,"Cc1cccn2nc([C@@H]3c4nc[nH]c4CCN3C(=O)c3cnc(-c4cnn(C)c4C)o3)cc12 [Example 1962, (S)-(2-(1,5-dimethyl-1H-pyrazol-4-yl)oxazol-5-yl)(4-(4-methylpyrazolo[1,5-a]pyridin-2-yl)-1,4,6,7-tetrahydro-5H-imidazo[4,5-c]pyridin-5-yl)methanone]",0.5 to 1
9,"Cc1cccn2nc([C@@H]3c4nc[nH]c4CCN3C(=O)c3cnc(-c4ccccn4)o3)cc12 [Example 1964, (S)-(4-(4-methylpyrazolo[1,5-a]pyridin-2-yl)-1,4,6,7-tetrahydro-5H-imidazo[4,5-c]pyridin-5-yl)(2-(pyridin-2-yl)oxazol-5-yl)methanone]",0.5 to 1
10,"Cc1cccn2nc([C@H]3c4nc[nH]c4CCN3C(=O)c3cnc(-c4ccccn4)o3)cc12 [Example 1965, (R)-(4-(4-methylpyrazolo[1,5-a]pyridin-2-yl)-1,4,6,7-tetrahydro-5H-imidazo[4,5-c]pyridin-5-yl)(2-(pyridin-2-yl)oxazol-5-yl)methanone]",> 5
11,"O=C(c1nnc(-c2ccccn2)s1)N1CCc2[nH]cnc2[C@H]1c1cc2ccccn2n1 [Example 1966, (S)-(4-(pyrazolo[1,5-a]pyridin-2-yl)-1,4,6,7-tetrahydro-5H-imidazo[4,5-c]pyridin-5-yl)(5-(pyridin-2-yl)-1,3,4-thiadiazol-2-yl)methanone]",< 0.5
12,"O=C(c1nnc(-c2ccccn2)s1)N1CCc2[nH]cnc2[C@@H]1c1cc2ccccn2n1 [Example 1967, (R)-(4-(pyrazolo[1,5-a]pyridin-2-yl)-1,4,6,7-tetrahydro-5H-imidazo[4,5-c]pyridin-5-yl)(5-(pyridin-2-yl)-1,3,4-thiadiazol-2-yl)methanone]",> 5
13,"Cc1cccn2nc([C@@H]3c4nc[nH]c4CCN3C(=O)c3nnc(-c4cncnc4)o3)cc12 [Example 1972, (S)-(4-(4-methylpyrazolo[1,5-a]pyridin-2-yl)-1,4,6,7-tetrahydro-5H-imidazo[4,5-c]pyridin-5-yl)(5-(pyrimidin-5-yl)-1,3,4-oxadiazol-2-yl)methanone]",0.5 to 1
14,"Cc1cccn2nc([C@H]3c4nc[nH]c4CCN3C(=O)c3nnc(-c4cncnc4)o3)cc12 [Example 1973, (R)-(4-(4-methylpyrazolo[1,5-a]pyridin-2-yl)-1,4,6,7-tetrahydro-5H-imidazo[4,5-c]pyridin-5-yl)(5-(pyrimidin-5-yl)-1,3,4-oxadiazol-2-yl)methanone]",> 5
15,"O=C(c1nnc(-c2cncnc2)o1)N1CCc2[nH]cnc2[C@H]1c1cc2c(F)cccn2n1 [Example 1974, (S)-(4-(4-fluoropyrazolo[1,5-a]pyridin-2-yl)-1,4,6,7-tetrahydro-5H-imidazo[4,5-c]pyridin-5-yl)(5-(pyrimidin-5-yl)-1,3,4-oxadiazol-2-yl)methanone]",0.5 to 1
16,"O=C(c1nnc(-c2cncnc2)o1)N1CCc2[nH]cnc2[C@@H]1c1cc2c(F)cccn2n1 [Example 1975, (R)-(4-(4-fluoropyrazolo[1,5-a]pyridin-2-yl)-1,4,6,7-tetrahydro-5H-imidazo[4,5-c]pyridin-5-yl)(5-(pyrimidin-5-yl)-1,3,4-oxadiazol-2-yl)methanone]",> 5
17,"Fc1cccn2nc([C@H]3c4nc[nH]c4CCN3c3ccccn3)cc12 [Example 1976, (R)-4-(4-fluoropyrazolo[1,5-a]pyridin-2-yl)-5-(pyridin-2-yl)-4,5,6,7-tetrahydro-1H-imidazo[4,5-c]pyridine]",> 5
18,"Fc1cccn2nc([C@@H]3c4nc[nH]c4CCN3c3ccccn3)cc12 [Example 1977, (S)-4-(4-fluoropyrazolo[1,5-a]pyridin-2-yl)-5-(pyridin-2-yl)-4,5,6,7-tetrahydro-1H-imidazo[4,5-c]pyridine]",0.5 to 1
19,"FC(F)c1cccn2nc([C@H]3c4nc[nH]c4CCN3c3ccccn3)cc12 [Example 1978, (R)-4-(4-(difluoromethyl)pyrazolo[1,5-a]pyridin-2-yl)-5-(pyridin-2-yl)-4,5,6,7-tetrahydro-1H-imidazo[4,5-c]pyridine]",> 5
20,"FC(F)c1cccn2nc([C@@H]3c4nc[nH]c4CCN3c3ccccn3)cc12 [Example 1979, (S)-4-(4-(difluoromethyl)pyrazolo[1,5-a]pyridin-2-yl)-5-(pyridin-2-yl)-4,5,6,7-tetrahydro-1H-imidazo[4,5-c]pyridine]",< 0.5
21,"CC(C)c1cccn2nc([C@@H]3c4nc[nH]c4CCN3C(=O)c3nnc(-c4ncccn4)o3)cc12 [Example 1981, (S)-(4-(4-isopropylpyrazolo[1,5-a]pyridin-2-yl)-1,4,6,7-tetrahydro-5H-imidazo[4,5-c]pyridin-5-yl)(5-(pyrimidin-2-yl)-1,3,4-oxadiazol-2-yl)methanone]",0.5 to 1
22,"CC(C)c1cccn2nc([C@@H]3c4nc[nH]c4CCN3C(=O)c3nnc(-c4ccn(C(F)(F)F)n4)o3)cc12 [Example 1984, (S)-(4-(4-isopropylpyrazolo[1,5-a]pyridin-2-yl)-1,4,6,7-tetrahydro-5H-imidazo[4,5-c]pyridin-5-yl)(5-(1-(trifluoromethyl)-1H-pyrazol-3-yl)-1,3,4-oxadiazol-2-yl)methanone]",< 0.5
23,"CC(C)c1cccn2nc([C@H]3c4nc[nH]c4CCN3C(=O)c3nnc(-c4ccn(C(F)(F)F)n4)o3)cc12 [Example 1985, (R)-(4-(4-isopropylpyrazolo[1,5-a]pyridin-2-yl)-1,4,6,7-tetrahydro-5H-imidazo[4,5-c]pyridin-5-yl)(5-(1-(trifluoromethyl)-1H-pyrazol-3-yl)-1,3,4-oxadiazol-2-yl)methanone]",> 5
24,"O=C(c1ocnc1C1CC1)N1CCc2[nH]cnc2[C@H]1c1cc2c(F)cccn2n1 [Example 1986, (S)-(4-cyclopropyloxazol-5-yl)(4-(4-fluoropyrazolo[1,5-a]pyridin-2-yl)-1,4,6,7-tetrahydro-5H-imidazo[4,5-c]pyridin-5-yl)methanone]",< 0.5
25,"O=C(c1ocnc1C1CC1)N1CCc2[nH]cnc2[C@@H]1c1cc2c(F)cccn2n1 [Example 1987, (R)-(4-cyclopropyloxazol-5-yl)(4-(4-fluoropyrazolo[1,5-a]pyridin-2-yl)-1,4,6,7-tetrahydro-5H-imidazo[4,5-c]pyridin-5-yl)methanone]",1 to 5
26,"Cc1cccn2nc([C@@H]3c4nc[nH]c4CCN3C(=O)c3ncco3)cc12 [Example 1989, (S)-(4-(4-methylpyrazolo[1,5-a]pyridin-2-yl)-1,4,6,7-tetrahydro-5H-imidazo[4,5-c]pyridin-5-yl)(oxazol-2-yl)methanone]",0.5 to 1
27,"O=C(c1nnc(C2CC2)s1)N1CCc2[nH]cnc2[C@H]1c1cc2ccccn2n1 [Example 1991, (S)-(5-cyclopropyl-1,3,4-thiadiazol-2-yl)(4-(pyrazolo[1,5-a]pyridin-2-yl)-1,4,6,7-tetrahydro-5H-imidazo[4,5-c]pyridin-5-yl)methanone]",0.5 to 1
28,"O=C(c1nnc(C2CC2)s1)N1CCc2[nH]cnc2[C@@H]1c1cc2c(F)cccn2n1 [Example 1992, (R)-(5-cyclopropyl-1,3,4-thiadiazol-2-yl)(4-(4-fluoropyrazolo[1,5-a]pyridin-2-yl)-1,4,6,7-tetrahydro-5H-imidazo[4,5-c]pyridin-5-yl)methanone]",> 5

# Source: patent US20230365592A1 (Agios Pharmaceuticals, Inc., priority 2022, published 2023)
